The values that follow come from patent US8642087B1, “Compounds and methods for reducing oxidative stress” (University of Kentucky Research Foundation, priority 2010, dated 2014).

Series [1] relates to HUVECs. In words: HNE-induced oxidative stress injury to HUVEC monolayer, transendothelial electrical resistance (TEER). Format: cell-based, human. Particulars: 20 hours; degradation products 100 μg/mL alone; HNE 30 μM alone. The procedure:
To assess the effect of 4-hydroxy-2-trans-nonenal (HNE)-induced oxidative stress injury to HUVECs in the presence of PAβAE degradation products, transendothelial electrical resistance (TEER) values were measured and used to monitor the permeability and injury of the cells subsequent to exposure to the degradation products of PAβAE and FINE. Briefly, HUVECs were seeded into 24 well plate Transwell inserts (Corning Costar Transwell Plates). Wells were rinsed with HBSS and media replaced every other day. TEER values (EVOM II reader, World Precision Instruments) were monitored every day until resistance stabilization after approximately 7 days. HUVECs were treated with degradation products of PAβAE, including 10% quercetin multiacrylate (QMA) and 10% curcumin multiacrylate (CMA), at a concentration of 100 μg/mL in the cell media for 1 hour. Following prophylactic incubation, and without removing PABAE degradation products, FINE was added to a final concentration 30 μM to induce oxidative injury. TEER was measured before cells were seeded, immediately before addition PABAE degradation products, and 20 hours following FINE incubation, which is consistent with maximum FINE induced injury. Change in TEER was calculated as shown below in Eq. 4. Change in TEER=(Ω20 hr−ΩTranswell insert)/(Ω0 hr−ΩTranswell insert) (4)

Series [2] concerns HUVECs. In words: H2O2-induced oxidative stress injury to HUVECs, cell viability by MTT assay. In kind it is cell-based, human. Particulars: for cell viability compared to untreated control cells: pre-treatment 2 hrs, then 500 μM H2O2, 24 hrs. How it is done:
To assess the effect of H2O2-induced oxidative stress injury to HUVECs in the presence of PAβAE degradation products, cell viability was measured and used as a marker of the injury to the cells subsequent to exposure to the degradation products of PAβAE and H2O2. […] Cells were exposed to antioxidants at different concentrations and a final H2O2 concentration of 500 μM. 24 hrs later, cell viability was measured using MTT assay as described above.
On the technique in general: Tetrazolium dyes change colour on reduction, which living cells bring about.

The subject of series [3] is human umbilical vein endothelial cells (HUVECs). Particulars: 24 h.
Experimental: (§1) To further examine the properties of the PAβAE hydrogels and their ability to be used as a polymer that is capable of controllably releasing an antioxidant molecule, the cytotoxicity of PAβAE degradation products was measured. In this analysis, human umbilical vein endothelial cells (HUVECs) were first purchased from Lonza (Allendale, N.J.) and cultured in EGM-2 media with 2% fetal bovine serum at 37° C. in a humidified atmosphere of 5% CO2, with HUVECs in passages 3 to 5 then being used. To assess the cytotoxicity of the degradation products, the HUVECs were then treated with degradation products of the PAβAEs at different concentrations and a MTT assay was used to measure cell viability after treating cells with the different concentrations of PAβAE degradation products. Briefly, HUVECs were seeded onto a 96-well plate at a cell density of 35,000 cells/cm^2, and, 24 hrs later, cell media was replaced with treatment solutions. 24 hrs post treatment, treatment solution was removed, cells were washed twice in PBS, and 200 μL of 0.5 mg/ml MTT solution in cell media was added to each well. The 96-well plate was then incubated at 37° C. for 12 hrs and the cell media was gently removed from the wells. 100 μL of DMSO was added to each well to dissolve the formazan product. The absorbance intensity was recorded, at 570 nm for formazan and at 690 for background, using a Cary-50 Bio UV-Visible spectrophotometer equipped with a Cary 50 MPR microplate reader (Varian, Santa Clara, Calif.).
(§2) PAβAE degradation products were then freeze dried and dissolved in DMSO at a concentration of 100 mg/ml. These concentrated DMSO solutions were then used to prepare fresh dilute solutions of PAβAE degradation products in cell media. Cells were treated with these PAβAE solutions for their cytotoxicity and their effect on cellular oxidative stress levels. To prepare quercetin and curcumin solutions, antioxidants were dissolved in DMSO at a concentration of 10 mg/ml and diluted in cell media.
The subject of series [4] is HUVECs. Particulars: literature, cited from earlier work.
Series [5] relates to human normal liver cells L-02. Particulars: literature; cited from earlier work.
A further series in a line: in vitro. Particulars: human.

Values after ≈ are worked out from the molar mass of the structure shown.

In general, viability refers to a per cent measure of how many cells are alive, often set against a control. A word on the IC50: it is the concentration that gives 50% inhibition.

Experimental for in vitro: as §1, §2

For `CCCCCC(O)/C=C/C=O` (stereo not drawn) [HNE, 4-hydroxy-2-trans-nonenal], in the series with HUVECs [1], the “Change in TEER compared to the TEER measurement at 0 hours” value was 75±2.

On to `OO` [H2O2, hydrogen peroxide], for which, in the series on HUVECs [2] (Homo sapiens, HUVEC, 500 μM H2O2 only, 24 hrs, read-out: cell viability compared to untreated control cells), the viability at 500 µM was found to be 72.9%.

On to `O=c1c(O)c(-c2ccc(O)c(O)c2)oc2cc(O)cc(O)c12` [quercetin, Quercetin], for which the “cytotoxicity (in words)” value in series [3] is given as “toxicity to HUVECs was note observed up to a concentration of 100 μg/ml”. Besides, the “previously reported IC50 value for HUVECs” value in the series with HUVECs [4] is 18.4 mg/L. For the same molecule, the half-maximal inhibitory concentration (IC50) in the series on HUVECs [4] (read-out: previously reported IC50 value for HUVECs) was 61 µM; in series [5], 113 µM. The “cell viability compared to untreated control cells” value in the series with HUVECs [2] was 101.13 ± 3.8.

Consider `COc1cc(/C=C/C(=O)CC(=O)/C=C/c2ccc(O)c(OC)c2)ccc1O` [curcumin], for which, in series [3] (5 μg/ml), the cell death stood at 40%. Further, the “previously reported IC50 value for HUVECs” value with HUVECs [4] is 10.8 mg/L. For the same molecule, the “cell viability compared to untreated control cells” value in the series on HUVECs [2] is listed as 57.7 ± 1.6. Moreover, the half-maximal inhibitory concentration (IC50) at 24 h in the series “in vitro” worked out at 6.8 mg/L (≈ 18.5 µM).
